According to patent publication US20210128639A1, “CELL PREPARATION FOR TREATING BRAIN TUMOR” (priority 2017, published 2021):

Columns and labels:
Type in all cases: cell-based, human
[1] = tested on: Tet-induction NS/PCs expressing HSVtk; assay: Cell death of Tet-induction NS/PCs expressing HSVtk on adding Dox and GCV to the medium; settings: 1 μg/ml doxycycline (Dox) and 1 μg/ml GCV added to the medium
Source text: Tet-induced iPS cells expressing HSVtk were differentiation-induced into NS/PCs to obtain secondary and tertiary Tet-induced NS/PCs expressing HSVtk.

[2] = tested on: Tet-induction iPS cells expressing HSVtk; assay: Cell death of Tet-induction iPS cells expressing HSVtk on adding Dox and GCV to the medium; settings: 1 μg/ml doxycycline (Dox) and 1 μg/ml GCV added to the medium
Source text: Human iPS cells were infected with the CSIV-HSV1tk-TRE-EF-KT lentiviral vector at an MOI of 2.5 to 10 and cultured. The clones were then sorted with the cell sorter to obtain an iPS cell line expressing hKO1 steadily and highly.

[3] = tested on: NS/PCs expressing HSVtk; assay: Cell death of NS/PCs expressing HSVtk on adding ganciclovir to the medium; settings: 1 μg/ml ganciclovir (GCV) added to the medium
Source text: Secondary or tertiary NS/PCs differentiation-induced from human iPS cells were collected with the centrifuge and disassembled into single cells using TrypLE Select. The single cells were suspended in NS medium, inoculated into a low adhesive flask at a concentration of 1×10^5 cells/ml, infected with the CSIV-EF-HSV1tk-IRES2-hKO1 lentiviral vector at an MOI (multiplicity of infection) of 0.5 to 1, and cultured for 7 days with the medium replaced every 3 to 4 days. The obtained NS/PCs were infected with the CSIV-EF-HSV1tk-IRES2-hKO1 lentiviral vector at an MOI of 0.5 to 1 in the same way again to prepare therapeutic stem cells (TSCs), that is, NS/PCs expressing HSVtk.

Question: `Nc1nc(O)c2ncn(COC(CO)CO)c2n1` [GCV, ganciclovir] was tested. Which “cell death of Tet-induction NS/PCs expressing HSVtk” value [1] did it give?
Answer: The value was “cell death of these Tet-induction NS/PCs expressing HSVtk was also induced”.

Question: What about the “cell death of Tet-induction iPS cells expressing HSVtk” value [2] of the same compound?
Answer: The value was “cell death of Tet-induction iPS cells expressing HSVtk was induced”.

Question: What about the “cell death of NS/PCs expressing HSVtk” value [3] of the same compound?
Answer: Its value is “cell death of the NS/PCs expressing HSVtk was induced”.
